Source: patent publication US20200361895A1, “NOVEL SULFONAMIDE CARBOXAMIDE COMPOUNDS” (Inflazome Limited, priority 2017, published 2020)

Target: NLRP3 (Homo sapiens, UniProt Q96P20)
Assay: THP-1 cells pyroptosis assay (LPS + nigericin, resazurin readout; THP IC50)
Type: cell-based
Set-up: Seed THP-1 cells (25,000 cells/well) containing 1.0 μg/ml LPS in 40 μl of RPMI medium; host or cells: THP-1 cells
Procedure: THP-1 cells (ATCC #TIB-202) were grown in RPMI containing L-glutamine (Gibco #11835) supplemented with 1 mM sodium pyruvate (Sigma #S8636) and penicillin (100 units/ml)/streptomycin (0.1 mg/ml) (Sigma #P4333) in 10% Fetal Bovine Serum (FBS) (Sigma #F0804). The cells were routinely passaged and grown to confluency (˜10^6 cells/ml). On the day of the experiment, THP-1 cells were harvested and resuspended into RPMI medium (without FBS). The cells were then counted and viability (>90%) checked by Trypan blue (Sigma #T8154). Appropriate dilutions were made to give a concentration of 625,000 cells/ml. To this diluted cell solution was added LPS (Sigma #L4524) to give a 1 μg/ml Final Assay Concentration (FAC). 40 μl of the final preparation was aliquoted into each well of a 96-well plate. The plate thus prepared was used for compound screening.
The following method step-by-step assay was followed for compound screening. • 1. Seed THP-1 cells (25,000 cells/well) containing 1.0 μg/ml LPS in 40 μl of RPMI medium (without FBS) in 96-well, black walled, clear bottom cell culture plates coated with poly-D-lysine (VWR #734-0317) • 2. Add 5 μcompound (8 points half-log dilution, with 10 μM top dose) or vehicle (DMSO 0.1% FAC) to the appropriate wells • 3. Incubate for 3 hrs at 37° C. and 5% CO2 • 4. Add 5 μnigericin (Sigma #N7143) (FAC 5 μM) to all wells • 5. Incubate for 1 hr at 37° C. and 5% CO2 • 6. At the end of the incubation period, spin plates at 300×g for 3 mins and remove supernatant • 7. Then add 50 μl of resazurin (Sigma #R7017) (FAC 100 μM resazurin in RPMI medium without FBS) and incubate plates for a further 1-2 hrs at 37° C. and 5% CO2 • 8. Plates were read in an Envision reader at Ex 560 nm and Em 590 nm • 9. IC50 data is fitted to a non-linear regression equation (log inhibitor vs response-variable slope 4-parameters)

NLRP3, sequence (Q96P20 whole entry): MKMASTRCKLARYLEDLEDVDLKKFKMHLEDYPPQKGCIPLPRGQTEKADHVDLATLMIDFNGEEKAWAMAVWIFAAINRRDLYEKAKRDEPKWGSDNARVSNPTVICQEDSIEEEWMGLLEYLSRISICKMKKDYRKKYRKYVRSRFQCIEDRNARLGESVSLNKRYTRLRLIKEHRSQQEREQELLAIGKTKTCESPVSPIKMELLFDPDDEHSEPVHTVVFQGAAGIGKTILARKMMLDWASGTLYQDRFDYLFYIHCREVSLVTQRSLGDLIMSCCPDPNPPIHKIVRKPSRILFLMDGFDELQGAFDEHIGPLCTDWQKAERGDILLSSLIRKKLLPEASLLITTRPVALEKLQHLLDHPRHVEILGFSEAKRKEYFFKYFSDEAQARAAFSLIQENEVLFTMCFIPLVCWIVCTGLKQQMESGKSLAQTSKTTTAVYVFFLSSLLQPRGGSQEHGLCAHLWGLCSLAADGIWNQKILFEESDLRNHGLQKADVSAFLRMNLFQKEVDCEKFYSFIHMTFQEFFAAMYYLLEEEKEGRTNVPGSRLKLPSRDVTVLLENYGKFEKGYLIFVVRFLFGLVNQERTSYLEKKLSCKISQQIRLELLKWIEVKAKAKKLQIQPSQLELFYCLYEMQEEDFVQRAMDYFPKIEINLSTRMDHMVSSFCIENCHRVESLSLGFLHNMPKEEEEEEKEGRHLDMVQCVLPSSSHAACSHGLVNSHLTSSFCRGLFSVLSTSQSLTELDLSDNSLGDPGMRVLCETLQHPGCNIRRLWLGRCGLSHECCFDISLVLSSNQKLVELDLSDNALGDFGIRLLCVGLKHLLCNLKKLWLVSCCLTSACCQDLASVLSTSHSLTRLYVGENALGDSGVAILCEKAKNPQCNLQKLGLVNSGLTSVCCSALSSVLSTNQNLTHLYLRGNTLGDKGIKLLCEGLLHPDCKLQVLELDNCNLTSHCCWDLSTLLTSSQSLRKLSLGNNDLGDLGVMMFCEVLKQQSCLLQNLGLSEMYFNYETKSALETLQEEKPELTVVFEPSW

Row | IC50 [µM] | SMILES
1 | ≤ 5 | O=C(Nc1c(-c2ccncc2)cc(F)c2c1CCC2)NS(=O)(=O)Cc1ccccc1 [Example 130, N-((7-Fluoro-5-(pyridin-4-yl)-2,3-dihydro-1H-inden-4-yl)carbamoyl)-1-phenylmethanesulfonamide]
2 | ≤ 10 | CC(C)CS(=O)(=O)NC(=O)Nc1c(-c2ccnc(C#N)c2)cc(F)cc1C(C)C [Example 131, N-((2-(2-Cyanopyridin-4-yl)-4-fluoro-6-isopropylphenyl)carbamoyl)-2-methylpropane-1-sulfonamide]
3 | ≤ 1 | COc1cc(-c2cc(F)cc(C(C)C)c2NC(=O)NS(=O)(=O)CC(C)C)ccn1 [Example 132, N-((4-Fluoro-2-isopropyl-6-(2-methoxypyridin-4-yl)phenyl)carbamoyl)-2-methylpropane-1-sulfonamide]
4 | ≤ 0.5 | COc1cc(-c2ccc3c(c2NC(=O)NS(=O)(=O)CC(C)C)CCC3)ccn1 [Example 133, N-((5-(2-Methoxypyridin-4-yl)-2,3-dihydro-1H-inden-4-yl)carbamoyl)-2-methylpropane-1-sulfonamide]
5 | ≤ 1 | CC(C)CS(=O)(=O)NC(=O)Nc1c(-c2ccncc2)cc(F)c2c1CCC2 [Example 134, N-((7-Fluoro-5-(pyridin-4-yl)-2,3-dihydro-1H-inden-4-yl)carbamoyl)-2-methylpropane-1-sulfonamide]
6 | ≤ 1 | CC(C)c1cc(F)cc(-c2ccnc(C#N)c2)c1NC(=O)NS(=O)(=O)CCc1ccccc1 [Example 135, N-((2-(2-Cyanopyridin-4-yl)-4-fluoro-6-isopropylphenyl)carbamoyl)-2-phenylethanesulfonamide]
7 | ≤ 0.5 | COc1cc(-c2cc(F)cc(C(C)C)c2NC(=O)NS(=O)(=O)CCc2ccccc2)ccn1 [Example 136, N-((4-Fluoro-2-isopropyl-6-(2-methoxypyridin-4-yl)phenyl)carbamoyl)-2-phenylethanesulfonamide]
8 | ≤ 0.5 | COc1cc(-c2ccc3c(c2NC(=O)NS(=O)(=O)CCc2ccccc2)CCC3)ccn1 [Example 137, N-((5-(2-Methoxypyridin-4-yl)-2,3-dihydro-1H-inden-4-yl)carbamoyl)-2-phenylethanesulfonamide]
9 | ≤ 5 | CC(C)c1cc(F)cc(-c2ccnc(C#N)c2)c1NC(=O)NS(=O)(=O)C(C)c1ccccc1 (stereo not drawn) [Example 139, N-((2-(2-Cyanopyridin-4-yl)-4-fluoro-6-isopropylphenyl)carbamoyl)-1-phenylethanesulfonamide]
10 | ≤ 5 | COc1cc(-c2cc(F)cc(C(C)C)c2NC(=O)NS(=O)(=O)C(C)c2ccccc2)ccn1 (stereo not drawn) [Example 140, N-((4-Fluoro-2-isopropyl-6-(2-methoxypyridin-4-yl)phenyl)carbamoyl)-1-phenylethanesulfonamide]
11 | ≤ 1 | COc1cc(-c2ccc3c(c2NC(=O)NS(=O)(=O)C(C)c2ccccc2)CCC3)ccn1 (stereo not drawn) [Example 141, N-((5-(2-Methoxypyridin-4-yl)-2,3-dihydro-1H-inden-4-yl)carbamoyl)-1-phenylethanesulfonamide]
12 | ≤ 5 | CC(c1ccccc1)S(=O)(=O)NC(=O)Nc1c(-c2ccncc2)cc(F)c2c1CCC2 (stereo not drawn) [Example 142, N-((7-Fluoro-5-(pyridin-4-yl)-2,3-dihydro-1H-inden-4-yl)carbamoyl)-1-phenylethanesulfonamide]
13 | ≤ 1 | COc1cc(-c2ccc3c(c2NC(=O)NS(C)(=O)=O)CCC3)ccn1 [Example 143, N-((5-(2-Methoxypyridin-4-yl)-2,3-dihydro-1H-inden-4-yl)carbamoyl)methanesulfonamide]
14 | ≤ 5 | COc1cc(-c2cc3c(cc2NC(=O)NS(=O)(=O)c2ccn(C4CC4)n2)CCC3)ccn1 [Example 144, 1-Cyclopropyl-N-((6-(2-methoxypyridin-4-yl)-2,3-dihydro-1H-inden-5-yl)carbamoyl)-1H-pyrazole-3-sulfonamide]
15 | ≤ 1 | CCN(CC)CCCS(=O)(=O)NC(=O)Nc1c(-c2ccnc(C#N)c2)cc(F)cc1C(C)C [Example 146, N-((2-(2-Cyanopyridin-4-yl)-4-fluoro-6-isopropylphenyl)carbamoyl)-3-(diethylamino)propane-1-sulfonamide]
16 | ≤ 0.5 | CCN(CC)CCCS(=O)(=O)NC(=O)Nc1c(-c2ccnc(OC)c2)cc(F)cc1C(C)C [Example 147, 3-(Diethylamino)-N-((4-fluoro-2-isopropyl-6-(2-methoxypyridin-4-yl)phenyl)carbamoyl)propane-1-sulfonamide]
17 | ≤ 0.5 | CCN(CC)CCCS(=O)(=O)NC(=O)Nc1c(-c2ccnc(OC)c2)ccc2c1CCC2 [Example 148, 3-(Diethylamino)-N-((5-(2-methoxypyridin-4-yl)-2,3-dihydro-1H-inden-4-yl)carbamoyl)propane-1-sulfonamide]
18 | ≤ 0.5 | CCN(CCCS(=O)(=O)NC(=O)Nc1c(-c2ccnc(OC)c2)cc(F)cc1C(C)C)Cc1ccccc1 [Example 150, 3-(Benzyl(ethyl)amino)-N-((4-fluoro-2-isopropyl-6-(2-methoxypyridin-4-yl)phenyl)carbamoyl)propane-1-sulfonamide]
19 | ≤ 5 | CCN(CCCS(=O)(=O)NC(=O)Nc1c(-c2ccnc(C#N)c2)cc(F)cc1C(C)C)Cc1ccccc1 [Example 151, 3-(Benzyl(ethyl)amino)-N-((2-(2-cyanopyridin-4-yl)-4-fluoro-6-isopropylphenyl)carbamoyl)propane-1-sulfonamide]
20 | ≤ 0.5 | CCN(CCCS(=O)(=O)NC(=O)Nc1c(-c2ccnc(OC)c2)ccc2c1CCC2)Cc1ccccc1 [Example 152, 3-(Benzyl(ethyl)amino)-N-((5-(2-methoxypyridin-4-yl)-2,3-dihydro-1H-inden-4-yl)carbamoyl)propane-1-sulfonamide]
21 | ≤ 5 | COCCCS(=O)(=O)NC(=O)Nc1c(-c2ccnc(C#N)c2)cc(F)cc1C(C)C [Example 154, N-((2-(2-Cyanopyridin-4-yl)-4-fluoro-6-isopropylphenyl)carbamoyl)-3-methoxypropane-1-sulfonamide]
22 | ≤ 0.5 | COCCCS(=O)(=O)NC(=O)Nc1c(-c2ccnc(OC)c2)cc(F)cc1C(C)C [Example 155, N-((4-Fluoro-2-isopropyl-6-(2-methoxypyridin-4-yl)phenyl)carbamoyl)-3-methoxypropane-1-sulfonamide]
23 | ≤ 0.5 | COCCCS(=O)(=O)NC(=O)Nc1c(-c2ccnc(OC)c2)ccc2c1CCC2 [Example 156, 3-Methoxy-N-((5-(2-methoxypyridin-4-yl)-2,3-dihydro-1H-inden-4-yl)carbamoyl)propane-1-sulfonamide]
24 | ≤ 5 | COCCCS(=O)(=O)NC(=O)Nc1c(-c2ccncc2)cc(F)c2c1CCC2 [Example 157, N-((7-Fluoro-5-(pyridin-4-yl)-2,3-dihydro-1H-inden-4-yl)carbamoyl)-3-methoxypropane-1-sulfonamide]
25 | ≤ 5 | CN1CCC(CS(=O)(=O)NC(=O)Nc2c(-c3ccncc3)cc(F)c3c2CCC3)C1 (stereo not drawn) [Example 165, N-((7-Fluoro-5-(pyridin-4-yl)-2,3-dihydro-1H-inden-4-yl)carbamoyl)-1-(1-methylpyrrolidin-3-yl) methanesulfonamide]
26 | ≤ 1 | CCn1nc(S(=O)(=O)NC(=O)Nc2c(-c3cccc(OC)c3)ccc3c2CCC3)cc1CN(C)C [Example 194, 5-((Dimethylamino)methyl)-1-ethyl-N-((5-(3-methoxyphenyl)-2,3-dihydro-1H-inden-4-yl)carbamoyl)-1H-pyrazole-3-sulfonamide]
27 | ≤ 5 | CC(C)c1cccc(-n2ccnc2)c1NC(=O)NS(=O)(=O)c1ccn(C(C)C)n1 [Example 204, N-((2-(1H-Imidazol-1-yl)-6-isopropylphenyl)carbamoyl)-1-isopropyl-1H-pyrazole-3-sulfonamide]
28 | ≤ 5 | CC(C)n1ccc(S(=O)(=O)NC(=O)Nc2c(-c3cccnc3)cc(F)cc2-c2cccnc2)n1 [Example 208, N-((4-Fluoro-2,6-di(pyridin-3-yl)phenyl)carbamoyl)-1-isopropyl-1H-pyrazole-3-sulfonamide]
29 | ≤ 5 | COc1cc(-c2ccc3ncccc3c2NC(=O)NS(=O)(=O)c2ccn(C(C)C)n2)ccn1 [Example 212, 1-Isopropyl-N-((6-(2-methoxypyridin-4-yl)quinolin-5-yl)carbamoyl)-1H-pyrazole-3-sulfonamide]
30 | ≤ 10 | COc1cc(-c2ccc3ccncc3c2NC(=O)NS(=O)(=O)c2ccn(C(C)C)n2)ccn1 [Example 217, 1-Isopropyl-N-((7-(2-methoxypyridin-4-yl)isoquinolin-8-yl)carbamoyl)-1H-pyrazole-3-sulfonamide]
